# Source: patent US20080279812A1, “Disease Prevention and Vaccination Prior to Thymic Reactivation” (Norwood Immunology, Ltd., priority 2003, published 2008)
# Where a SMILES comes first, the peptide text is derived from it. [ ]: non-standard residue; d: D form. dPhe(4-Cl) = N[C@H](Cc1ccc(Cl)cc1)C(=O)O; d2Nal = N[C@H](Cc1ccc2ccccc2c1)C(=O)O; Lys(iPr) = CC(C)NCCCC[C@H](N)C(=O)O; NMeY = CN[C@@H](Cc1ccc(O)cc1)C(=O)O; d3Pal = N[C@H](Cc1cccnc1)C(=O)O
# Assays:
# sex steroids [1] = conditions: single injection of sufficient dose; cited from earlier work
# [2] = test system: thymus, spleen and lymph node cell numbers; assay: Chemical castration compared to surgical castration, T cell regeneration after cyclophosphamide; assay type: in vivo; conditions: mice
# Source text: FIG. 9: Changes in thymus (open bars), spleen (gray bars) and lymph node (black bars) cell numbers following treatment with cyclophosphamide, a chemotherapy agent, and surgical or chemical castration performed on the same day. Note the rapid expansion of the thymus in castrated animals when compared to the non-castrate (cyclophosphamide alone) group at 1 and 2 weeks post-treatment. In addition, spleen and lymph node numbers of the castrate group were well increased compared to the cyclophosphamide alone group. (n=34 per treatment group and time-point).
# T cell Depletion Using Cyclophosphamide. Old mice (e.g., 2 years old) were injected with cyclophosphamide (200 mg/kg body wt over two days) and castrated.
# FIG. 9 illustrates the use of chemical castration compared to surgical castration in enhancement of T cell regeneration. […] The enhancing effects were equivalent on thymic expansion and also the recovery of spleen and lymph node. The kinetics of chemical castration are slower than surgical, that is, mice take about 3 weeks longer to decrease their circulating sex steroid levels. However, chemical castration is still as effective as surgical castration and can be considered to have an equivalent effect.
# [3] = GnRH analog before allogeneic BMT (Example 27); assay type: in vivo, human
# Description: In a randomized unblinded study 20 patients are treated with a GnRH analog prior to receiving a BMT. This patient group is to a control group (n=19) who also undergo a BMT, but will not receive a GnRH analog.
# All patients receive an allogeneic graft from a matched donor in accordance with accepted medical techniques (Lincz et al., (2001) Leuk. and Lymph. 40: 373).
# Prior to transplant, the BM from all patients is ablated using standard ablating drugs and techniques (Segeren et al., (1999). Br. J. Haem. 105:127-130).
# Blood samples from each patient are drawn at days −21, −2, 0, 1, 2, 3, 7, 10, 14 and 21. The blood samples are then evaluated for WBC, neutrophils, T cells (by FACS analysis, as described in detail above), granulocytes levels, and hematocrit, using the methods described in detail elsewhere herein, as well as methods well known to those skilled in the art.
# Additionally, all patients are monitored for infection rates (including viral infection), the use of antibiotics, febrile neutropenia, and mean days of severe neutropenia (ANC<0.5×10^9/L). These analyses are performed as outlined above, with the patients being followed up at 1 month, 3 months, 6 months and 9 months from the date of transplant.
# [4] = G-CSF with or without Lupron in small cell lung cancer patients on chemotherapy (Example 26); assay type: in vivo, human
# [5] = test system: H1N1 strains of Influenza; assay type: in vivo, human; conditions: patients in all groups, after influenza vaccination
# sex steroids [6] = conditions: 30 mg injection; cited from earlier work
# [7] = GnRH agonist in metastatic prostate cancer, haemopoiesis and neutrophil count (Example 28); assay type: in vivo, human; conditions: within the first 14 days of therapy
# Description: All patients also received an anti-androgen drug. Cosudex® may also be given (5 mg/day or 50 mg/day orally) for 1 month. All patients undergo a Full Blood Analysis (FBA) prior to the commencement of therapy. FBA involves standard pathology analysis of lymphocytes, white blood cells, hematocrit and red blood cell content. In addition, analysis of immunological parameters including T cell stimulation, cytokine production, immune cell subsets and TREC analysis are performed. Additionally, blood samples from each patient are drawn at days −2, 0, 1, 2, 3, 7, 10, 14, 21, and 28, and monthly thereafter for 6 months. The blood samples are then evaluated for WBC, neutrophils, T cells (by FACS analysis, as described in detail above), granulocytes levels, and hematocrit, using the methods described in detail elsewhere herein, as well as methods well known to those skilled in the art.
# thymic cellularity = assay: IL-7 administration with or without castration in allogeneic HSCT recipients, thymic cellularity; assay type: in vivo, mice
# Source text: Mice and HSCT. Male C57BL/6J (B6, H-2b), C3FeB6F1/J([B6 3 C3H]F1; H-2b/k), B10.BR (H-2k), B6D2F1/J (H-2b/d), CBA/J (H-2k), Balb/c (H2-d), IL7−/− and KGF−/− mice were obtained from the Jackson Laboratory (Bar Harbor, Me.) and used in experiments when they were between 8 and 12 weeks of age. KGF−/− and IL7−/− were used between 4 and 7 months of age. HSCT protocols were approved by the Memorial Sloan-Kettering Cancer Center Institutional Animal Care and Use Committee. The BM cells were removed aseptically from femurs and tibias. Donor BM was depleted of T cells by incubation with anti-Thy-1.2 for 30 mins. at 4° C. followed by incubation with Low-TOX-M rabbit complement (Cedarlane Laboratories, Hornby, ON, Canada) for 1 hour at 37° C. Splenic T cells (for GVHD analysis) were obtained by purification over a nylon wool column followed by red cell removal with ammonium chloride red cell lysis buffer. Cells (5×10^6 BM cells with or without splenic T cells and leukemia cells) were resuspended in Dulbecco modified essential medium (Life Technologies, Grand Island, N.Y.) and transplanted by tail vein infusion (0.25 mL total volume) into lethally irradiated recipients on day 0. Prior to transplantation, on day 0, recipients received 1300 cGy total body irradiation (^137Cs source) as split dose with 3 hours between doses (to reduce gastrointestinal toxicity). Mice were housed in sterilized microisolator cages and received normal chow and autoclaved hyperchlorinated drinking water (pH 3.0).
# Administration of IL-7. IL-7 were either given from days 0 to 13 or 21 to 27 intraperitoneally at 10 μg/day for immune reconstitution studies. PBS was injected into control mice at the same time-points.
# Flow Cytometric Analysis. BM cells, splenocytes or thymocytes were washed in FACS buffer (phosphate buffered saline (PBS)/2% bovine serum albumin (BSA)/0.1% azide) and 1-3×10^6 cells were incubated for 30 mins. at 4° C. with CD16/CD32 FcR block. Cells were then incubated for 30 mins. at 4° C. with primary antibodies and washed twice with FACS buffer. Where necessary, cells were incubated with conjugated Streptavidin for a further 30 mins. at 4° C. The stained cells were resuspended in FACS buffer and analyzed on a FACSCalibur™ flow cytometer (Becton Dickinson, San Jose, Calif.) with CellQuest™ software.
# [8] = test system: IL-7-dependent murine pre-B cell line 2E8; assay: Thymidine incorporation proliferation assay with IL-7-dependent pre-B cell line; assay type: cell-based; conditions: 2E8 cell line
# Description: Tissue culture medium consisted of RPMI 1640 supplemented with 10% heat inactivated fetal calf serum, 100 U/mL penicillin, […] streptomycin, and 2 mM L-glutamine (as well as […] 2-mercaptoethanol for the culture of 32Dp210 cells and proliferation assays).
# [9] = cited from earlier work
molecule,measurement,setting,value
"CC(=O)N[C@H](Cc1ccc2ccccc2c1)C(=O)N[C@H](Cc1ccc(Cl)cc1)C(=O)N[C@H](Cc1cccnc1)C(=O)N[C@@H](CO)C(=O)N(C)[C@@H](Cc1ccc(O)cc1)C(=O)N[C@H](CC(N)=O)C(=O)N[C@@H](CC(C)C)C(=O)N[C@@H](CCCCNC(C)C)C(=O)N1CCC[C@H]1C(=O)N[C@H](C)C(N)=O [Abarelix, abarelix] (Ac-[d2Nal][dPhe(4-Cl)][d3Pal]S[NMeY][dN]L[Lys(iPr)]P[dA]-NH2)",time to castration,sex steroids [1],5 to 8 days
CCNC(=O)[C@@H]1CCCN1C(=O)[C@H](CCCN=C(N)N)NC(=O)[C@H](CC(C)C)NC(=O)[C@@H](Cc1c[nH]c2ccccc12)NC(=O)[C@H](Cc1ccc(O)cc1)NC(=O)[C@H](CO)NC(=O)[C@H](Cc1c[nH]c2ccccc12)NC(=O)[C@H](Cc1cnc[nH]1)NC(=O)[C@@H]1CCC(=O)N1 [Deslorelin],additional time to decrease circulating sex steroid levels versus surgical castration,[2],about 3 weeks
same,rate of regeneration post-cyclophosphamide treatment compared to surgical castration,[2]; injected for four weeks,comparable rate of regeneration
same,enhancing effects on thymic expansion and recovery of spleen and lymph node versus surgical castration,[2]; post-cyclophosphamide,equivalent
"CCNC(=O)[C@@H]1CCCN1C(=O)[C@H](CCCNC(=N)N)NC(=O)[C@H](CC(C)C)NC(=O)[C@@H](CC(C)C)NC(=O)[C@H](Cc1ccc(O)cc1)NC(=O)[C@H](CO)NC(=O)[C@H](Cc1c[nH]c2ccccc12)NC(=O)[C@H](Cc1c[nH]cn1)NC(=O)[C@@H]1CCC(=O)N1 [Lupron®, leuprolide acetate]",infection rates between the 2 groups,"[3]; 3, 6 and 9 months from transplant",statistically different
same,"WBC counts, mean days of severe Neutropenia (ANC <500/mm^3) and febrile neutropenia versus non-treated group",[3]; up to day 21 from transplantation,clinically and statistically significant reduction
same,incidence of viral and other infection rates between the two groups,[3]; up to month 1,not be statistically significant
same,results versus higher Lupron dosage (Group 2),[4]; G-CSF plus low dose Lupron 11.25 mg (Group 3),not statistically different
same,results versus Group 2,[4]; Lupron 22.5 mg on day 14 pre-chemotherapy (Group 4),not statistically different
same,hemagglutination-inhibition antibody titer versus prior to therapy,[5],higher hemagglutination-inhibition antibody titer
same,duration of sex steroid ablation,sex steroids [6],four months
same,patients with an increase in haemopoiesis (T cell analysis) and neutrophil count versus baseline,[7],approximately 70%
IL-7: Recombinant human IL-7 provided by Cytheris,"thymic cellularity, combined castration and IL-7 versus castrated group",thymic cellularity; day 14 after allo-HSCT,no significant difference
same,"thymic cellularity, combined castration and IL-7 versus control",thymic cellularity; day 14 after allo-HSCT,significantly more cells
same,"thymic cellularity, IL-7 treated sham-castrated versus PBS treated sham-castrated","thymic cellularity; day 14 after allo-HSCT, 10 μg/day i.p. days 0-13",no difference
same,"thymic cellularity, IL-7 alone group versus control group","thymic cellularity; day 28 after allo-HSCT, IL-7 days 21-27",significantly higher than the control group
same,effect of combination of IL-7 treatment and castration on thymic cellularity,thymic cellularity; day 28 after allogeneic HSCT,additive effect
same,proliferative effect on murine cells,[8],equal to murine IL-7
"G-CSF: granulocyte colony stimulating factor, Neupogen (Amgen) (protein, UniProt P09919 31-207, looked up, filgrastim, N-terminal Met) Granulocyte …: TPLGPASSLPQSFLLKCLEQVRKIQGDGAALQEKLVSECATYKLCHPEELVLLGHSLGIPWAPLSSCPSQALQLAGCLSQLHSGLFLYQGLLQALEGISPELGPTLDTLQLDVADFATTIWQQMEELGMAPALQPTQGAMPAFASAFQRRAGGVLVASHLQSFLEVSYRVLRHLAQP",neutrophils,[9]; other Phase I/II trials,measurable increases in neutrophils
same,"incidence of infection (febrile neutropenia, infection rates, in-patient hospitalization, antibiotic use)","[9]; small cell lung cancer, 4-8 μg/kg/day s.c. days 4-17 after chemotherapy, placebo-controlled",clinically and statistically significant decrease
"Neulasta®: Amgen product given as single SC dose on day 2 of each chemotherapy cycle; called GM-CSF in the text (protein, UniProt P09919 31-207, looked up, pegfilgrastim: PEGylated, N-terminal Met, called GM-CSF in the text) Granulocyte …: TPLGPASSLPQSFLLKCLEQVRKIQGDGAALQEKLVSECATYKLCHPEELVLLGHSLGIPWAPLSSCPSQALQLAGCLSQLHSGLFLYQGLLQALEGISPELGPTLDTLQLDVADFATTIWQQMEELGMAPALQPTQGAMPAFASAFQRRAGGVLVASHLQSFLEVSYRVLRHLAQP",rates of febrile Neutropenia,[9]; both studies,10-20%
same,mean days of severe Neutropenia,"[9]; metastatic breast cancer, administered day 2 of chemotherapy cycle, both studies",approximately 1.7 days
